# Marks after values point to notes of the source that are not given here.
# What was measured:
# [1] = tested on: atherosclerosis rabbit model; test: Atherosclerosis inhibitory effect in cholesterol-fed rabbits; format: in vivo; conditions: for lipid-deposition area (%), abdominal aorta / lipid-deposition area (%), thoracic aorta: 12 weeks, 0.67% cholesterol feed; for lipid-deposition area (%), abdominal aorta / lipid-deposition area (%), thoracic aorta / Plasma lipid concentration TC: mean ± standard error; for Plasma lipid concentration TC: 12 weeks from cholesterol-loading
# Experimental: A 0.67% cholesterol-containing feed (40 g/kg/day) and compound A were given to male NZW rabbits (Japan SLC) for 12 weeks. Blood was drawn from the auricular vein using a heparinized capillary tube, and centrifuged at 3000 rpm for 10 min. The total cholesterol (hereinafter to be indicated as “TC”) value of the obtained plasma was measured by an enzyme assay using a measurement kit.
# After 12 weeks, the carotid artery was peeled and removed with pentobarbital anesthesia, and exsanguinated to remove the aorta. The obtained carotid artery was immediately placed in Krebs buffer, the surrounding tissues were carefully removed, and the ring specimen was prepared trying not to damage endothelial cells. Then, the ring specimen was suspended in a Magnus tank filled with Krebs buffer at 37° C. under an air flow of 95% O2-5% CO2 mixed gas. The experiment was conducted after reaching a steady state by loading 2 g tension.
# For the measurement of a relaxation response, the specimen was contracted in advance with norepinephrine, and when the contraction reached steady state, acetylcholine was cumulatively added. The vascular relaxation rate was determined based on the contraction induced by 10 μM norepinephrine as 100%.
# Using a transducer (NIHON KOHDEN), tension was measured isometrically. The significant difference was tested for by variance analysis with two-way layout (Dunnett's method) relative to the control group.
# The removed aorta was divided into arch aorta, thoracic aorta and abdominal aorta, fixed with 10% formalin buffer, photographed, the area of the lipid adhered to the aorta was measured and the proportion of the area of the lipid-deposition area relative to the area of aorta was determined.
# [2] = tested on: NAD(P)H oxidase in normal rat aorta; test: Effect on normal rat NAD(P)H oxidase (superoxide anion production in aorta after administration); format: in vivo; conditions: 10 mg/kg for 3 days
# Experimental: The test compound (10 mg/kg) was administered to normal male Wistar rats (Japan SLC) for 3 days, and the production amount of superoxide anion in the aorta was measured in the same manner as in Experimental Example 2.
# The inhibitory rate (%) was calculated by the following formula: inhibitory rate (%)=100−(A/B)×100 wherein A is the standardized chemiluminescence value of the rats administered with the test compound, and B is the standardized chemiluminescence value of the rats without administration of the test compound (control group).
# [3] = tested on: rat acute myocardial infarction model; test: Rat left coronary artery-ligated myocardial infarction model; format: in vivo
# Excerpt: Male SD rats (Japan SLC) were fixed in the dorsal position with ether anesthesia, and subjected to thoracotomy by vertical incision along the left sternal line according to the method by Selye H. et al. (Angiology, 1960, 11, 398) to expose the heart. The left coronary artery was ligated using a silk thread (No. 4) at 1-2 mm from the basal part, the heart was put back in place and quickly deaerated, and the chest was closed. The rat was confirmed to have myocardial infarction with an electrocardiograph (NIHON KOHDEN). The rat was exsanguinated to death from the abdominal aorta 24 hr after ligation. The heart was removed, and a circular cross-section at the center thereof was incubated in a solution of 1% 2,3,5-triphenyltetrazolium chloride (hereinafter to be indicated as “TTC”) in 0.1 M phosphate buffer for 20 min under light shielding. Thereafter, the section was fixed with formalin buffer, traced, and the areas of infarction region (TTC unstained region) and left ventricle were calculated. Immediately after coronary artery ligation, compound A was suspended in 1% CMC solution and orally administered to the rat.
# The inhibitory rate was calculated by the following formula: [formula] [formula]
# In addition, compound A (1 mg/kg) was orally administered at 15 min, 1 hr and 3 hr after ligation, and infarction inhibitory effect was examined.
# [4] = tested on: rabbit myocardial infarction model; test: Rabbit ischemia-reperfusion myocardial infarction model; format: in vivo; conditions: 1 mg/kg 1 hr before ligation; normal group as 100%
# Excerpt: Male NZW rabbits (Japan SLC) were fixed in the dorsal position and subjected to thoracotomy with pentobarbital anesthesia. A silk thread (No. 4) was applied to the proximal left coronary artery, a polyethylene tube (length 1 cm) was further applied and the left coronary artery was ligated using a thread. After 2 hr from the ligation, the thread on the polyethylene tube was cut to reperfusion. After 4 hr from the reperfusion, the proximal coronary artery was ligated using a silk thread (No. 4), and 3% Evans blue solution (1 mL/kg) was intravenously administered. After 5 min, an excess pentobarbital was administered and the heart and aorta were removed. The heart was cut into a 3 mm-wide annular shape, and the left ventricle area and ischemia region (Evans blue unstained region) were traced.
# After incubation in 1% TTC solution for 30 min, an infarction focus (TTC unstained region) was traced. Compound A (1 mg/kg) was administered 1 hr before the ligation.
# The ratios of the ischemic region and infarction focus to the left ventricle area were calculated. […]
# This suspension was centrifuged at 3000 rpm for 10 min, and the supernatant (8 mL) was centrifuged at 15000 rpm for 15 min. The obtained supernatant was mixed with phosphate buffer containing o-dianisidine dihydrochloride, kept at 25° C. for 30 min, the absorbance (OD460) was measured, and the myeloperoxidase (MPO) activity was determined. […]
# NAD(P)H oxidase = test: IL-8 production inhibitory effect in HUVEC cultured with 44 mM glucose; format: cell-based, human; conditions: for inhibitory rate (%) of IL-8 production: 8 days
# Experimental: NAD(P)HOxidase Inhibitory Effect (Method)
# 44 mM glucose was added to Human Umbilical Vein Endothelial Cells (Bio Whittaker, hereinafter to be indicated as “HUVEC”), and cells were cultured for 8 days. Then, a lysis buffer containing a surfactant, Triton-X Nonidet P-40, was added, and interleukin-8 (hereinafter to be indicated as “IL-8”) in the cell lysate, which had been produced by NAD(P)H oxidase was measured by an enzyme-linked […]. The test compound was added one day before glucose addition.
# The inhibitory rate was calculated from the following formula: inhibitory rate (%)=100−[(A−C)/(B−C)]×100
# wherein A is IL-8 production of a cell cultured in the presence of 44 mM glucose with addition of the test compound, B is IL-8 production of a cell cultured in the presence of 44 mM glucose without addition of the test compound, and C is IL-8 production of a cell cultured in the absence of 44 mM glucose and the test compound. The IC50 value was calculated from the dose-effect line drawn by the least squares method based on the obtained inhibitory rate.
# [5] = 0.1 mg/kg oral immediately after coronary artery ligation, 24 hr
# [6] = 0.3 mg/kg oral immediately after coronary artery ligation, 24 hr
# [7] = 1 mg/kg oral immediately after coronary artery ligation, 24 hr
# [8] = 1 mg/kg oral, 15 min after ligation
# [9] = 1 mg/kg oral, 1 hr after ligation
# [10] = 1 mg/kg oral, 3 hr after ligation
structure (smiles),measurement,setting,value
C[C@@H](Nc1nnc(-c2ccccc2)c2ccccc12)C1CCCCC1.O=C(O)/C=C\C(=O)O [compound A],"lipid-deposition area (%), abdominal aorta",[1]; 1 mg/kg,25.4 ± 6.2 %
same,"lipid-deposition area (%), thoracic aorta",[1]; 1 mg/kg,62.1 ± 10.0 %
same,Plasma lipid concentration TC,[1]; 1 mg/kg,1895.3 ± 244.6 mg/dL
same,"lipid-deposition area (%), abdominal aorta",[1]; 10 mg/kg,18.2 ± 2.2 %
same,"lipid-deposition area (%), thoracic aorta",[1]; 10 mg/kg,56.5 ± 10.5 %
same,Plasma lipid concentration TC,[1]; 10 mg/kg,1887.9 ± 103.9 mg/dL
same,endothelial-dependent relaxation response of carotid artery by Ach,"[1]; Ach 10^−8 to 10^−5 M, FIG. 1, result in words",significantly improved as compared to the control group
same,"inhibitory rate (%), NAD(P)H oxidase in normal rat aorta",[2],1.8%
same,effect on superoxide anion production in normal rat,[2]; result in words,did not affect the superoxide anion production
same,chemiluminescence (×10^5 RLU/wet weight of aorta),"[2]; normal rat aorta, mean ± standard error",3.89 ± 3.0 ×10^5 RLU/wet weight of aorta
same,infarction rate (%),[3]; [5],40%
same,inhibitory rate (%) of infarction,[3]; [5],0%
same,infarction rate (%),[3]; [6],17.2** %
same,inhibitory rate (%) of infarction,[3]; [6],57** %
same,infarction rate (%),[3]; [7],6.3** %
same,inhibitory rate (%) of infarction,[3]; [7],84.3** %
same,infarction rate (%),[3]; [8],10.5** %
same,inhibitory rate (%) of infarction,[3]; [8],73.8%
same,infarction rate (%),[3]; [9],16.7** %
same,inhibitory rate (%) of infarction,[3]; [9],58.3%
same,infarction rate (%),[3]; [10],29.3* %
same,inhibitory rate (%) of infarction,[3]; [10],26.8%
same,MPO activity in myocyte,[4],128%*
same,IC50,NAD(P)H oxidase; from dose-effect line by least squares,6.3 nM
same,inhibitory rate (%) of IL-8 production,NAD(P)H oxidase; test compound concentration 0.01 μM,39.5%
same,inhibitory rate (%) of IL-8 production,NAD(P)H oxidase; test compound concentration 0.1 μM,59.8%
same,inhibitory rate (%) of IL-8 production,NAD(P)H oxidase; test compound concentration 1 μM,74%
